Data on 5 sequences can be found in article PMC2248166, “Quantitative peptide binding motifs for 19 human and mouse MHC class I molecules derived using positional scanning combinatorial peptide libraries” (Immunome Research, 2008).

For one experiment, the target named is HLA B*0801 (Homo sapiens, UniProt P01889, A93T/A95T/D138N/E176V/E187T/K202T/Q94N/R180D/S35A/V36M/Y33D/Y91F). Description: biochemical. The class given is binding.
A further experiment concerns the target HLA B*2705 (Homo sapiens, UniProt P01889, D138H/D201E/E176V/E204Q/G107R/H137Y/K202T/N104T/N87E/Q56L/Q94K/R106L/R155S/R180L/S101D/S121N/S48T/Y140D/Y33H/Y91C). The class given is binding. Particulars: positional scanning combinatorial 9-mer library; normalized to 1.0 for the best residue at each position.
The next experiment has as its target HLA B*5301 (Homo sapiens, UniProt P01889, A329T/A93T/A95T/C349S/D201E/D98Y/E176V/E187L/E204Q/E69T/G107R/I218V/K202T/L105A/L119I/N104I/Q94N/R106L/R155S/R180L/S101N/S121R/S35A/S48A/T118I/V127L/V306I/V36M/Y140S/Y91F). The format is binding.
The next experiment has as its target HLA B*0702 (Homo sapiens, UniProt P01889). The class given is binding. As to conditions: positional scanning combinatorial 9-mer library; normalized to 1.0 for the best residue at each position.
A further experiment addresses HLA B*1501 (Homo sapiens, UniProt P01889, A329T/A93T/A95T/C349S/D201E/D98Y/E187L/E204Q/E69M/E70A/K202T/N87E/Q94N/R155S/R180W/S121R/S35A/S48A/V306I/V36M/Y140S/Y91S). Description: biochemical. The class given is binding.
Another experiment concerns the target HLA B*5101 (Homo sapiens, UniProt P01889, A329T/A93T/A95T/C349S/D138N/D201E/D98Y/E187L/E204Q/E69T/G107R/I218V/K202T/L105A/L119W/N104I/Q94N/R106L/R155S/R180L/S101N/S121T/S35A/S48A/V306I/V36M/Y195H/Y91F). The class given is binding.
The next experiment has as its target HLA B*1503 (Homo sapiens, UniProt P01889, A329T/A93T/A95T/C349S/D201E/D98Y/E187L/E204Q/K202T/N87E/Q94N/R155S/R180L/S121R/S35A/V306I/V36M/Y140S/Y91S). Description: biochemical. The class given is binding.
For the next experiment, the target named is H-2 K^k (Mus musculus, UniProt P04223). The class given is binding.
Another experiment has as its target HLA A*3201 (Homo sapiens, UniProt P04439, A270S/D101S/D185E/E176V/E277Q/F133L/G103R/G107R/G231S/H175R/I121M/I218V/I322F/K168Q/L105A/L300P/L318F/M331R/P208A/P217A/Q94H/R106L/R138Q/S129P/T104I/T323A/T345S/V100E/V321M/V358M). Description: biochemical. The format is binding.
For the next experiment, the target named is H-2 D^b (Mus musculus, UniProt P01899). The format is binding.
The next experiment deals with H-2 D^d (Mus musculus, UniProt P01900). The class given is binding.
The next experiment has as its target HLA B*5802 (Homo sapiens, UniProt P01889, A329T/C349S/D201E/D98Y/E176V/E187L/E204Q/E69T/G107R/I218V/I90N/K202T/L105A/N104I/N87E/Q89R/Q94S/R106L/R155S/R180L/R86G/S101N/S121W/S35A/S48A/V127L/V306I/V36M/Y140S/Y91M). The format is binding.
In a further experiment the target is HLA B*3501 (Homo sapiens, UniProt P01889, A329T/A93T/A95T/C349S/D201E/D98Y/E176V/E187L/E204Q/E69T/I218V/K202T/L119I/Q94N/R155S/R180L/S121R/S35A/S48A/T118I/V127L/V306I/V36M/Y140S/Y91F). The class given is binding.
A further experiment concerns the target HLA A*6802 (Homo sapiens, UniProt P04439, A269V/D140Y/D185E/E176V/E277Q/E87N/F33Y/G231S/I121R/I166T/I218V/L180W/L300P/L318F/N151K/P208A/P217A/Q86R/R138H/R169H/S129P/T345S/V36M). The class given is binding.
The target in the next experiment is HLA A*3001 (Homo sapiens, UniProt P04439, D140H/D185E/E176W/F33S/G80R/H175R/K168Q/R138E/R41S). Description: biochemical. The class given is binding.
The next experiment has as its target HLA B*5801 (Homo sapiens, UniProt P01889, A329T/C349S/D201E/D98Y/E176V/E187L/E204Q/E69T/G107R/I218V/I90N/K202T/L105A/L119I/N104I/N87E/Q89R/Q94S/R106L/R155S/R180L/R86G/S101N/S121R/S35A/S48A/T118I/V127L/V306I/V36M/Y140S/Y91M). The format is binding.
The next experiment has as its target HLA A*0201 (Homo sapiens, UniProt P04439, D140Y/D185E/D98H/E176V/E277Q/G131W/G231S/I119V/I121R/I166T/I218V/L300P/L318F/N151K/N90K/P208A/P217A/Q86G/Q94H/R138H/R169H/T345S). As to conditions: positional scanning combinatorial 9-mer library; normalized to 1.0 for the best residue at each position.
The target in the next experiment is HLA B*5401 (Homo sapiens, UniProt P01889, A329T/C349S/D138N/D201E/E176V/E187T/E204Q/E69G/I76V/K202T/L119W/R155S/R180L/S121T/S35A/S48A/V127L/V306I/V36M/Y140L). The format is binding.
The target in the next experiment is H-2 K^d (Mus musculus, UniProt P01902). The class given is binding.
H-2 K^d, sequence (P01887 21-119): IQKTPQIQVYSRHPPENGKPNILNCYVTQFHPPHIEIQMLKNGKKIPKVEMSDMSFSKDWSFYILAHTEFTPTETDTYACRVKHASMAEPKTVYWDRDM
H-2 K^d, sequence (P01902 22-368): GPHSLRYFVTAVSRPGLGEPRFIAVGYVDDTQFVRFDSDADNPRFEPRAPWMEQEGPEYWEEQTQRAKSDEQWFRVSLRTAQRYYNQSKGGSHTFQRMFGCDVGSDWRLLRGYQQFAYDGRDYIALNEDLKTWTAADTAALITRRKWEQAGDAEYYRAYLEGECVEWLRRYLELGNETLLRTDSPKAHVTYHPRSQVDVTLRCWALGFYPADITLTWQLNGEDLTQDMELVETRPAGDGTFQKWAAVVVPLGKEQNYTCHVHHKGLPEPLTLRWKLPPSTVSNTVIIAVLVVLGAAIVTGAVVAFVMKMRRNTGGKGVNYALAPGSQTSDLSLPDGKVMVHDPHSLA

H-2 D^d, sequence (P01900 whole entry, looked up): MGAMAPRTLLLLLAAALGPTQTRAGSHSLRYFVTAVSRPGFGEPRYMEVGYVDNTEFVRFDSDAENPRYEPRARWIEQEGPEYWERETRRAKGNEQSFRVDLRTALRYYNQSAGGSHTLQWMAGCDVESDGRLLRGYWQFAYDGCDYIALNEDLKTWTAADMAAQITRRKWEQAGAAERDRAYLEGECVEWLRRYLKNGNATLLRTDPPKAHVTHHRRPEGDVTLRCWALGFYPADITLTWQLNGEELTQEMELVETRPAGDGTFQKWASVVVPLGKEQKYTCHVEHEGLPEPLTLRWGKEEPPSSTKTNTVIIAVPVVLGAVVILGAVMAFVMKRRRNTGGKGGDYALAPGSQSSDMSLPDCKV
H-2 D^b, sequence (P01887 21-119): as the sequence (P01887 21-119) above
H-2 D^b, sequence (P01899 25-362): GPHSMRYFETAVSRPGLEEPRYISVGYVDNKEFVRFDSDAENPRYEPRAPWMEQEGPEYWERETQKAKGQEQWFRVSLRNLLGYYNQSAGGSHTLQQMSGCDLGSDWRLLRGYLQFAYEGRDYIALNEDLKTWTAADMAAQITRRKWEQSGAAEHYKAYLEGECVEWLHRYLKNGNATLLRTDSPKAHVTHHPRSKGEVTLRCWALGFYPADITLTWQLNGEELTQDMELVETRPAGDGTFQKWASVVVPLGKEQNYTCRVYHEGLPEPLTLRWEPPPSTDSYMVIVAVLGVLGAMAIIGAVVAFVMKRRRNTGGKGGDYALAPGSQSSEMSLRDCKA
H-2 K^k, sequence (P01887 21-119): as the sequence (P01887 21-119) above
H-2 K^k, sequence (P04223 22-369): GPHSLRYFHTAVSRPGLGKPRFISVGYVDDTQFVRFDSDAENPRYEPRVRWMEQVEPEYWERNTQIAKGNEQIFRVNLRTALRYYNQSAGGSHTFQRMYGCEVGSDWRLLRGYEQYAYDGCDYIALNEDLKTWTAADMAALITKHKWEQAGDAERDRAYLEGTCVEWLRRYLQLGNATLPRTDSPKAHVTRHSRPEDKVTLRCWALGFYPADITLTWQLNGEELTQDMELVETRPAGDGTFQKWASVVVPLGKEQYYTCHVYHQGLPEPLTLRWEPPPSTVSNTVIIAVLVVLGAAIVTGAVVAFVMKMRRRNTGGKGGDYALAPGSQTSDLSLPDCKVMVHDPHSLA

AXXXXXXXX [3064.0001]: the “Normalized average relative binding affinity (ARB), HLA B*0801” value on HLA B*0801 amounted to 0.11. For the same sequence, the “Normalized average relative binding affinity (ARB), HLA B*2705” value at HLA B*2705 was 0.35. Moreover, at HLA B*5301, the “Normalized average relative binding affinity (ARB), HLA B*5301” value is given as 0.0057. At HLA B*0702, the “Normalized average relative binding affinity (ARB), HLA B*0702” value was 0.78. Moreover, the “Normalized average relative binding affinity (ARB), HLA B*1501” value on HLA B*1501 turned out to be 0.31. On HLA B*5101, the “Normalized average relative binding affinity (ARB), HLA B*5101” value is 0.071. Besides, the “Normalized average relative binding affinity (ARB), HLA B*1503” value at HLA B*1503 worked out at 0.47. The “Normalized average relative binding affinity (ARB), H-2 Kk” value on H-2 K^k is listed as 0.18. Also, the “Normalized average relative binding affinity (ARB), HLA A*3201” value at HLA A*3201 came to 0.36. Also, the “Normalized average relative binding affinity (ARB), H-2 Db” value on H-2 D^b worked out at 0.14. Also, on H-2 D^d, the “Normalized average relative binding affinity (ARB), H-2 Dd” value is 0.20. For the same sequence, on HLA B*5802, the “Normalized average relative binding affinity (ARB), HLA B*5802” value stood at 0.065. Further, at HLA B*3501, the “Normalized average relative binding affinity (ARB), HLA B*3501” value is on record as 0.042. At HLA A*6802, the “Normalized average relative binding affinity (ARB), HLA A*6802” value turned out to be 0.031. For the same sequence, the “Normalized average relative binding affinity (ARB), HLA A*3001” value at HLA A*3001 was 0.18. Also, at HLA B*5801, the “Normalized average relative binding affinity (ARB), HLA B*5801” value was 0.33. The “Normalized average relative binding affinity (ARB), HLA A*0201” value at HLA A*0201 worked out at 0.11. On HLA B*5401, the “Normalized average relative binding affinity (ARB), HLA B*5401” value came to 0.014.

For XXXXXXYXX [3064.0140], the “Normalized average relative binding affinity(ARB)” value on HLA B*0801 turned out to be 0.27; at HLA B*5301 it was 0.12; on HLA B*1501, 0.28; on HLA B*5101, 1.0; at HLA B*1503, 0.17; on H-2 K^k, 0.092. Moreover, the “Normalized average relative binding affinity(ARB)” value is 0.55 on HLA A*3201; 1.0 at H-2 D^b; 0.076 at H-2 D^d; 0.11 at H-2 K^d; 0.069 on HLA B*5802; 0.32 on HLA B*3501. Besides, the “Normalized average relative binding affinity(ARB)” value came out at 0.62 on HLA A*6802, 0.20 on HLA A*3001, 0.94 at HLA B*5801 and 0.32 on HLA B*5401.

As to XXXXXYXXX [3064.0120], the “Normalized average relative binding affinity(ARB)” value at HLA B*0801 amounted to 0.0094; at HLA B*5301 it was 1.0; at HLA B*1501, 0.20; at HLA B*5101, 0.097; on HLA B*1503, 0.40; on H-2 K^k, 0.35. Moreover, the “Normalized average relative binding affinity(ARB)” value at HLA A*3201 is 0.38; at H-2 D^b it was 0.68; on H-2 D^d, 0.83; on H-2 K^d, 0.26; at HLA B*5802, 0.64; at HLA B*3501, 0.061. Further, the “Normalized average relative binding affinity(ARB)” value at HLA A*6802 came out at 0.43; on HLA A*3001 it was 0.21; at HLA B*5801 it was 1.0; on HLA B*5401 it was 0.19.

For XXXXYXXXX [3064.0100], the “Normalized average relative binding affinity(ARB)” value on HLA B*0801 turned out to be 0.064; at HLA B*5301 it was 0.087; on HLA B*1501, 0.95; at HLA B*5101, 0.26; on HLA B*1503, 0.34; at H-2 K^k it was 0.14. Further, the “Normalized average relative binding affinity(ARB)” value at HLA A*3201 came to 0.28; on H-2 D^b, 0.013; at H-2 D^d, 0.24; at H-2 K^d, 0.015; at HLA B*5802 it was 0.62; at HLA B*3501, 0.22. Further, the “Normalized average relative binding affinity(ARB)” value is listed as 0.27 at HLA A*6802, 0.21 on HLA A*3001, 0.33 on HLA B*5801 and 0.084 at HLA B*5401.

Take XXXYXXXXX [3064.0080]: the “Normalized average relative binding affinity(ARB)” value at HLA B*0801 amounted to 0.59; at HLA B*5301 it was 0.29; at HLA B*1501, 0.41; on HLA B*5101, 0.88; at HLA B*1503, 0.55; on H-2 K^k, 0.24. Further, the “Normalized average relative binding affinity(ARB)” value at HLA A*3201 is reported as 0.71; at H-2 D^b it was 0.63; on H-2 D^d, 1.0; at H-2 K^d, 0.14; at HLA B*5802, 0.49; at HLA B*3501, 0.085. For the same sequence, the “Normalized average relative binding affinity(ARB)” value is 0.44 on HLA A*6802, 0.42 at HLA A*3001, 0.27 at HLA B*5801 and 0.26 at HLA B*5401.
